Assay results: ChEMBL document CHEMBL4024702, “Covalent Modifiers: A Chemical Perspective on the Reactivity of α,β-Unsaturated Carbonyls with Thiols via Hetero-Michael Addition Reactions” (J Med Chem, 2017)
Non-standard residues stand in square brackets, D forms with d. Residues, ends and D or L forms follow the SMILES beside them. *: point of attachment. Cbz = O=C(OCc1ccccc1)*; Dap = NC[C@H](N)C(=O)O

Tests used:
[1] = Inhibition of PI3K (unknown origin); set-up: species or system Homo sapiens
[2] = molecular target: Sodium-dependent dopamine transporter (Rattus norvegicus, UniProt P23977); assay: Inhibition of [3H]dopamine uptake at DAT in rat brain striatal synaptosomes by liquid scintillation counting analysis; type: subcellular, Striatum
[3] = molecular target: T1, Papain (Carica papaya) (UniProt P00784); assay: Irreversible inhibition of Carica papaya papain assessed as ratio of Kinact to Ki
T1 sequence (whole entry): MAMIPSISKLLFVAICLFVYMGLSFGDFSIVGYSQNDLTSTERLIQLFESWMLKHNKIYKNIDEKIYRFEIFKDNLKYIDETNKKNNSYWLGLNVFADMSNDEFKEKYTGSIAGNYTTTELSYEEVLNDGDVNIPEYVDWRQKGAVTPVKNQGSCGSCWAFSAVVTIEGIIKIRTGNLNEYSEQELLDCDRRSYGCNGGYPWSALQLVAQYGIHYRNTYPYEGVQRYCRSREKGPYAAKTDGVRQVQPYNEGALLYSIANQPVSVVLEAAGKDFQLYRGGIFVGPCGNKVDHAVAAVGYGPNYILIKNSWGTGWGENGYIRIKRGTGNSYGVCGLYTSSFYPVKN

[4] = Glutathione reactivity of the compound in DMSO/HEPES buffer assessed as second order rate constant for adduct formation at pH 7.4 by spectroscopic analysis
[5] = Methanethiol reactivity of the compound in CD3OD/deuterio phosphate buffer assessed as equilibrium constant for adduct formation at pH 7.4 by […] analysis
[6] = Butanethiol reactivity of the compound in CD3OD/deuterio phosphate buffer assessed as equilibrium constant for adduct formation at pH 7.4 by […] analysis
[7] = Beta-mercaptoethanol reactivity of the compound in CD3OD/deuterio phosphate buffer assessed as equilibrium constant for adduct formation at pH 7.4 by […] analysis
[8] = Cysteine reactivity of the compound in CD3OD/deuterio phosphate buffer assessed as equilibrium constant for adduct formation at pH 7.4 by […] analysis
[9] = Glutathione reactivity of the compound in CD3OD/deuterio phosphate buffer assessed as equilibrium constant for adduct formation at pH 7.4 by […] analysis
[10] = Thiol reactivity of the compound assessed as equilibrium constant for adduct formation
[11] = Cysteine reactivity of the compound assessed as second order rate constant by 1H NMR analysis
[12] = Lysine reactivity of the compound in aqueous buffer assessed as drug recovery after 6 days at pH 7.4
[13] = Thiol reactivity of the compound in PBS buffer assessed as pseudo-first order rate constant for adduct formation in presence of 4-nitrobenzenethiol at pH 7.4 by stop-flow spectrophotometric analysis
[14] = Inhibition of wild-type HCV genotype 1b protease using 5-FAM/QXL 520 as substrate after 60 to 90 mins by FRET-based assay; set-up: species or system Hepatitis C virus subtype 1b
[15] = molecular target: Exportin-1 (Homo sapiens, UniProt O14980); assay: Inhibition of CRM1-mediated nucleocytoplasmic transport in human HeLa cells after 90 mins by immunofluorescence assay; type: cell-based
[16] = Glutathione reactivity of the compound in DMSO and phosphate buffer assessed as second order rate constant for adduct formation
[17] = test system: Tetrahymena pyriformis; assay: Toxicity in Tetrahymena pyriformis assessed as growth inhibition after 48 hrs
[18] = Cysteamine reactivity of the compound in TRIS-HCL assessed as second order rate constant at 40 uM and pH 7.4 by stopped-flow assay
[19] = molecular target: Adenosylhomocysteinase (Homo sapiens) (UniProt P23526); assay: Inhibition of S-adenosyl-L-homocysteine hydrolase (unknown origin)
[20] = molecular target: Adenosylhomocysteinase (Homo sapiens) (UniProt P23526); assay: Ratio of Kinact to Ki for S-adenosyl-L-homocysteine hydrolase (unknown origin)
[21] = molecular target: T2, Calpain-1 catalytic subunit (Homo sapiens, UniProt P07384); assay: Inhibition of human calpain 1 protease using Ac-LLY-AFC as substrate after 1 hr by fluorescence assay
T2 sequence (P07384 whole entry): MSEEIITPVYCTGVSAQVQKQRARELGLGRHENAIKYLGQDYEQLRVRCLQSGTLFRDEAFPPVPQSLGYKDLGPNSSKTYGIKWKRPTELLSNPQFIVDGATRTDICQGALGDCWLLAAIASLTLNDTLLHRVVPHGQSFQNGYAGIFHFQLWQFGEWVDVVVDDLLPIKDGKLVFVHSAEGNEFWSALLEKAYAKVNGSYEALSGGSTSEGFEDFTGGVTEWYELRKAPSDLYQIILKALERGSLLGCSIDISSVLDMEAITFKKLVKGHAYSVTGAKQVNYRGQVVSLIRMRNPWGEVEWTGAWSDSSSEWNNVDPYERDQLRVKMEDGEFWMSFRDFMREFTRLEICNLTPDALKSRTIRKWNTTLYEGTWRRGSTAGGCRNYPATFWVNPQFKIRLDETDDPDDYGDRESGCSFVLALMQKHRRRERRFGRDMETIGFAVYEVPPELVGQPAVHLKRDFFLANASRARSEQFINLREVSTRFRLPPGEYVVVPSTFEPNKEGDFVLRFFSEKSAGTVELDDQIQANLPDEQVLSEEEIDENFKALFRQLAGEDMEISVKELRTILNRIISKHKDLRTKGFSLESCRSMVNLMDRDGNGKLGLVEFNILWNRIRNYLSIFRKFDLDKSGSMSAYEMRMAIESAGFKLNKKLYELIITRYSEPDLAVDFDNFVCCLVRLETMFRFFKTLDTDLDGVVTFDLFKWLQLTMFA

[22] = Glutathione reactivity of the compound assessed as second order rate constant by 1H NMR analysis
[23] = Binding affinity to human rhinovirus serotype 14 3C protease; set-up: species or system rhinovirus B14
[24] = Cysteine reactivity of the compound assessed as adduct formation after 2 mins by mass spectrometric analysis
[25] = molecular target: Proto-oncogene tyrosine-protein kinase Src (Gallus gallus, UniProt P00523, S345C); assay: Inhibition of chicken c-Src S345C mutant (251 to 533 residues) expressed in Escherichia coli by fluorescence assay
[26] = test system: Proto-oncogene tyrosine-protein kinase Src (Gallus gallus), P00523 [S345C]; assay: Ratio of Kinact to Ki for chicken c-Src S345C mutant (251 to 533 residues) expressed in Escherichia coli
[27] = Glutathione reactivity of the compound assessed as adduct formation after 2 mins by mass spectrometric analysis

Sodium-dependent dopamine transporter, sequence (P23977 whole entry): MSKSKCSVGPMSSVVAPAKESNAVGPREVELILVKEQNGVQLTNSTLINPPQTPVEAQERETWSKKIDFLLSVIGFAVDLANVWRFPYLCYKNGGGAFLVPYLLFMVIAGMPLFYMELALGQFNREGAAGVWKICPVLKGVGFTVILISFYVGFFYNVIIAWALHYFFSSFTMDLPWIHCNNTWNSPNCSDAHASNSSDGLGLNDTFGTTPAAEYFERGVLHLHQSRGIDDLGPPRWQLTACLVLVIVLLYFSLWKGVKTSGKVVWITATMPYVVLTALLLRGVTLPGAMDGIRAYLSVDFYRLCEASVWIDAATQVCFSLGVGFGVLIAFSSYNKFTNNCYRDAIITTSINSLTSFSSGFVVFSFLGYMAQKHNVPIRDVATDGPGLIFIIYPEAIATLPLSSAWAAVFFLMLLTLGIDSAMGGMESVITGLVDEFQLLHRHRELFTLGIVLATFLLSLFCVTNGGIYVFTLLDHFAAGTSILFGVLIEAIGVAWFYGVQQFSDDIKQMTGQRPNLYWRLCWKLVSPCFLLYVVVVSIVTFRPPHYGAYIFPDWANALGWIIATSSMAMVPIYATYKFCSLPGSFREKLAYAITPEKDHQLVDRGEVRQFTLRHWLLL
Exportin-1, sequence (O14980 whole entry): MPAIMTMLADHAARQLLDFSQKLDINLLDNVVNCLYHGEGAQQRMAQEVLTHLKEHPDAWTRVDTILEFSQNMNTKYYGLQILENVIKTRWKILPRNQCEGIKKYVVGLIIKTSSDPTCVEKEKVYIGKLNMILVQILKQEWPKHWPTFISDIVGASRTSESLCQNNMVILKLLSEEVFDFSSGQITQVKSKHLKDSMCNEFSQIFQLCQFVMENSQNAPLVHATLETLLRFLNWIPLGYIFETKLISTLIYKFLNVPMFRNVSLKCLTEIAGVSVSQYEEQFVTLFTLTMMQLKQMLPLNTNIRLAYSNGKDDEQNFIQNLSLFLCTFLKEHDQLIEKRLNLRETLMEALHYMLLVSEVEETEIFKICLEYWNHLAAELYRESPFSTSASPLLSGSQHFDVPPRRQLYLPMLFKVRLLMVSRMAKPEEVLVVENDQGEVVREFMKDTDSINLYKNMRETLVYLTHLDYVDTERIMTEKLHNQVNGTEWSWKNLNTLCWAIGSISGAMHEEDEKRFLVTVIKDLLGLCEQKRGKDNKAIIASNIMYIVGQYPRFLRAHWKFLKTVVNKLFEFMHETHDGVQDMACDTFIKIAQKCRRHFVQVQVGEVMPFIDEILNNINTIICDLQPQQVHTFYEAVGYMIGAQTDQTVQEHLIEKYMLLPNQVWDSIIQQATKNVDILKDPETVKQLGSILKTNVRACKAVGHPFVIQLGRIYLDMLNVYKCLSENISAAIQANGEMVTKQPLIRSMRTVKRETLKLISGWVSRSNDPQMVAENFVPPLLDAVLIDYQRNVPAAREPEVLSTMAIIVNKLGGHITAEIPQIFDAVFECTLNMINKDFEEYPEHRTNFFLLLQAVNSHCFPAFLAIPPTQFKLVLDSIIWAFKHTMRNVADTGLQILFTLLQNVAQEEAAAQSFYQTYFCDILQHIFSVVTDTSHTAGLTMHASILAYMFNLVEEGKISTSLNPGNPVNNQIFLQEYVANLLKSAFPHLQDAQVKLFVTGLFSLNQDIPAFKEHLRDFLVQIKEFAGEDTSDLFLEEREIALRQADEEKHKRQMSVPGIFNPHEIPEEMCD
Adenosylhomocysteinase (Homo sapiens), sequence (P23526 2-432 limits assumed): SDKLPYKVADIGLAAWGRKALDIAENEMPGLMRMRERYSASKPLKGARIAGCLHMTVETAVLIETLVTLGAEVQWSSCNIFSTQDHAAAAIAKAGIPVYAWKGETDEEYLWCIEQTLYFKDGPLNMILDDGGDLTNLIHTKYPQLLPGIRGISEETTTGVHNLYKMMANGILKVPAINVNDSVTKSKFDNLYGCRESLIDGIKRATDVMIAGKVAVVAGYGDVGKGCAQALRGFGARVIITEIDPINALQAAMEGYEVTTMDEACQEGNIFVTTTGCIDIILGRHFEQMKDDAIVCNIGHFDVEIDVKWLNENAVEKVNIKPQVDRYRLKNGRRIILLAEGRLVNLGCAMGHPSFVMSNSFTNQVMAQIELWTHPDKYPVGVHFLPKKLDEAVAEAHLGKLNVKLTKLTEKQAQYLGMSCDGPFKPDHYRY

CO[C@H]1OC(=O)/C(=C\SC(C)C)C2=C(O)C(=O)C3=C([C@H](OC(C)=O)C[C@]4(C)C(=O)CC[C@@H]34)[C@]21C
IC50 [1]: 0.1 nM

C=CC(C)=O
IC50 [2]: 331 µM

COC(=O)/C=C/CNC(=O)c1cc(-c2ccc(C)cc2)no1
Ratio [3]: 1.2 M⁻¹ s⁻¹

CCN(CC)c1ccc2cc(C(CC=O)SC[C@H](NC(=O)CC[C@H](N)C(=O)O)C(=O)NCC(=O)O)c(=O)oc2c1 (some centres undefined)
K [4]: 0.41 M⁻¹ s⁻¹

CCCCC[C@H](O)/C=C/[C@H]1C=CC(=O)/C1=C/CCCCCC(=O)OC
Ke [5]: 0.35 to 1.6 M⁻¹
Ke [6]: 0.35 to 1.6 M⁻¹
Ke [7]: 0.35 to 1.6 M⁻¹
Ke [8]: 0.35 to 1.6 M⁻¹
Ke [9]: 0.35 to 1.6 M⁻¹

CC1C(=O)CCC1Sc1ccccc1 (centres undefined)
Ke [10]: 1.28 M⁻¹

C=C[C@@]12COC(=O)C(=C)[C@@H]1[C@H]1OC(=O)C(=C)[C@@H]1[C@@H](O)C2
K [11]: 200 M⁻¹ s⁻¹
Drug recovery [12]: 75%

CCCCC[C@H](O)/C=C/[C@H]1C=CC(=O)[C@@H]1CCCCCCC(=O)OC
Ke [5]: 6.1 to 10.8 M⁻¹
Ke [6]: 6.1 to 10.8 M⁻¹
Ke [7]: 6.1 to 10.8 M⁻¹
Ke [8]: 6.1 to 10.8 M⁻¹
Ke [9]: 6.1 to 10.8 M⁻¹

COC(=O)/C=C/CNC(=O)[C@@H](CNC(C)=O)Cc1ccccc1
Ratio [3]: 6.6 M⁻¹ s⁻¹

CC(C)(C)c1cc(O)cc(Sc2ccc([N+](=O)[O-])cc2)c1O
K [13]: 2.3 ×10¹ /s

C=CC(=O)N[C@H](C)C(=O)N1C[C@H](Oc2nccc3ccc(Br)cc23)C[C@H]1C(=O)N[C@]1(C(=O)CS(=O)(=O)C2CC2)C[C@H]1C=C
IC50 [14]: 4 nM

C=C[C@@H]1C[C@]1(NC(=O)[C@@H]1C[C@@H](Oc2nccc3ccc(Br)cc23)CN1C(=O)[C@@H](C)NC(=O)CC)C(=O)CS(=O)(=O)C1CC1
IC50 [14]: 1150 nM

C/C=C(\C)C[C@H](C)[C@@H](O)[C@H](C)C(=O)[C@H](C)/C=C(C)/C=C/C[C@@H](C)/C=C(\C=C\[C@H]1CC=CC(=O)O1)CC
IC50 [15]: 10 nM

C=CC(=O)NCC(=O)N1C[C@H](Oc2nccc3ccc(Br)cc23)C[C@H]1C(=O)N[C@]1(C(=O)CS(=O)(=O)C2CC2)C[C@H]1C=C
IC50 [14]: 2 nM

CC1=CC(=O)CC1
Ke [10]: 0.88 M⁻¹
K [16]: 0.074 M⁻¹ s⁻¹
EC50 [17]: 20.9 mM

CCC(=C/C(C)C)/C=C/[C@@H]1OC(=O)C=C[C@@H]1C
IC50 [15]: 25 nM

COc1ccc(C(=O)C(C(SCCN)c2ccc(OC)c(OC)c2)C(F)(F)F)c(OC)c1 (centres undefined)
K [18]: 17 M⁻¹ s⁻¹

COC1=C(OC)/C(=C/Cn2cnc3c(N)ncnc32)OC1=O
K [19]: 84.9 M⁻¹ s⁻¹
Ratio [20]: 152 M⁻¹ s⁻¹

Cc1cc(O)cc(Sc2ccc([N+](=O)[O-])cc2)c1O
K [13]: 3.2 ×10² /s

COc1ccc(C(=O)C(C#N)C(SCCN)c2ccc(OC)c(OC)c2)c(OC)c1 (centres undefined)
K [18]: 5700 M⁻¹ s⁻¹

CCCCCC/C=C\CC(=O)N[C@@H](CO)C(=O)N[C@H](C(=O)N[C@@H](CO)[C@@H](O)CC(=O)N[C@H](C(=O)N[C@@H]1/C=C/C(=O)N[C@@H](C(C)C)C(=O)N(C)[C@@H](Cc2ccc(O)cc2)C(=O)OC1)C(C)C)C(C)C
IC50 [21]: 3 to 79 nM

CO[C@H]1OC(=O)/C(=C\N(C2CC2)C2CC2)C2=C(O)C(=O)C3=C([C@H](OC(C)=O)C[C@]4(C)C(=O)CC[C@@H]34)[C@]21C
IC50 [1]: 0.3 nM

COC(=O)/C=C/CNC(=O)[C@H](CNC(C)=O)Cc1ccccc1
Ratio [3]: 0.4 M⁻¹ s⁻¹

CO[C@H]1OC(=O)/C(=C\Sc2ccccc2)C2=C(O)C(=O)C3=C([C@H](OC(C)=O)C[C@]4(C)C(=O)CC[C@@H]34)[C@]21C
IC50 [1]: 0.5 nM

CCN(CC)c1ccc2cc(C(SC[C@H](NC(=O)CC[C@H](N)C(=O)O)C(=O)NCC(=O)O)C(C(C)=O)C(C)=O)c(=O)oc2c1 (some centres undefined)
K [4]: 12 M⁻¹ s⁻¹

C=C1C(=O)O[C@H]2[C@H]1[C@H](OC(=O)/C(C)=C\C)CC(=C)[C@@H]1[C@H](O)[C@H]3O[C@@]3(C)[C@@]12O
K [11]: 42 M⁻¹ s⁻¹
Drug recovery [12]: 75%

COC[C@H]1OC(=O)c2coc3c2[C@@]1(C)C1=C(C3=O)[C@@H]2CCC(=O)[C@@]2(C)C[C@H]1OC(C)=O [WORTMANNIN]
IC50 [1]: 0.8 nM

C=C1CCOC1=O
K [22]: 1.3 ×10⁻⁴ /M/s

COc1ccc(C(=O)C(C(SCCN)c2ccc(OC)c(OC)c2)[N+](=O)[O-])c(OC)c1 (centres undefined)
K [18]: 750 M⁻¹ s⁻¹

CC(=O)NC[C@@H](C=O)NC(=O)[C@H](Cc1ccccc1)NC(=O)[C@H](CC(C)C)NC(=O)OCc1ccccc1 (Cbz-Leu-Phe-[Dap](Ac)-aldehyde)
Ki [23]: 6 nM

CCCCC[C@@H](O)C/C=C1/C(=O)C[C@H](O)[C@@H]1C/C=C\CCCC(=O)O
Drug metabolism [24]: 60%

COc1ccc(C(=O)C(Br)C(SCCN)c2ccc(OC)c(OC)c2)c(OC)c1 (centres undefined)
K [18]: 2.9 M⁻¹ s⁻¹

COC(=O)/C=C/CNC(=O)C1CCN(C(=O)CC(C)C)CC1
Ratio [3]: 0.5 M⁻¹ s⁻¹

CCC(=C/[C@H](C)C/C=C/C(C)=C/[C@@H](C)C(=O)[C@@H](C)[C@H](O)[C@@H](C)C/C(C)=C/C(=O)O)/C=C/[C@@H]1OC(=O)C=C[C@@H]1C [LEPTOMYCIN B]
IC50 [15]: 1 nM

CCN(CC)c1ccc2cc(C(CC(C)=O)SC[C@H](NC(=O)CC[C@H](N)C(=O)O)C(=O)NCC(=O)O)c(=O)oc2c1 (some centres undefined)
K [4]: 0.007 M⁻¹ s⁻¹

CN(C)C/C=C/C(=O)Nc1ccc2ncnc(Nc3cccc(Br)c3)c2c1
IC50 [25]: 240 nM
Ratio [26]: 0.085 M⁻¹ s⁻¹

O=[N+]([O-])c1ccc(Sc2cc(O)ccc2O)cc1
K [13]: 1.5 ×10³ /s

CCN1C(=O)C=CC1=O [N-ETHYLMALEIMIDE]
K [11]: 3750 M⁻¹ s⁻¹
IC50 [2]: 46.8 µM

C=C(C)C(=O)O[C@H]1CC2=C[C@@H](C[C@@]3(C)O[C@H]3[C@H]3OC(=O)C(=C)[C@@H]31)OC2=O
K [11]: 20 M⁻¹ s⁻¹
Drug recovery [12]: 75%

O=C1C=CCC1
Ke [10]: 3900 M⁻¹
K [16]: 25.6 M⁻¹ s⁻¹

C=CC=O [ACROLEIN]
IC50 [2]: 52.5 µM

Cc1cc(O)c(C)c(Sc2ccc([N+](=O)[O-])cc2)c1O
K [13]: 7.3 ×10⁻¹ /s

CCN(CC)c1ccc2cc(C(CC(=O)OC)SC[C@H](NC(=O)CC[C@H](N)C(=O)O)C(=O)NCC(=O)O)c(=O)oc2c1 (some centres undefined)
K [4]: 0 M⁻¹ s⁻¹

CCCCC[C@@H](O)C/C=C1/C(=O)C=C[C@@H]1C/C=C\CCCC(=O)O
Drug metabolism [27]: 70%
Drug metabolism [24]: 85%

C=CS(=O)(=O)Nc1ccc2ncnc(Nc3cccc(Br)c3)c2c1
IC50 [25]: 2 nM
Ratio [26]: 1.03 M⁻¹ s⁻¹
